The assay concerns the target T1, SHP2 protein (Homo sapiens, UniProt Q06124).
T1 sequence (Q06124 1-593): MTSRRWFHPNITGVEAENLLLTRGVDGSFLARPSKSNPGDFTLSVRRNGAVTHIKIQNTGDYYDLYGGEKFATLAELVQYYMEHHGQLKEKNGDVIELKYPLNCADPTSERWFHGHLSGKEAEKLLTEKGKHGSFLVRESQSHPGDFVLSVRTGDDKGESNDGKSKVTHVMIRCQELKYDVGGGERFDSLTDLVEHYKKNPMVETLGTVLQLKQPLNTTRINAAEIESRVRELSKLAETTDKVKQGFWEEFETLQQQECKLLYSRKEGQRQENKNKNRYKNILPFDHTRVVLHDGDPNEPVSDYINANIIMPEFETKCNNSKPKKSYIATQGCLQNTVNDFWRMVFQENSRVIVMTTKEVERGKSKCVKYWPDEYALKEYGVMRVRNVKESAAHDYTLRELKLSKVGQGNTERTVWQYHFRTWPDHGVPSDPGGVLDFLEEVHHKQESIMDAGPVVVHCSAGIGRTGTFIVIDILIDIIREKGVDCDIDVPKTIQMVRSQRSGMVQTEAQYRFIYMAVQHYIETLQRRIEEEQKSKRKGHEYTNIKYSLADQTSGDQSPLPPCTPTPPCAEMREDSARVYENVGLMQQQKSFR
Put plainly: Measurement of SHP2 protein degradation in MV-4-11 cells (western blotting). The class given is cell-based. The following applies: for SHP2 degradation (%) 10 nM / SHP2 degradation (%) 100 nM: MV-4-11 cells, 24 hours. Also on record: endogenous in cells; host or cells: MV-4-11. The protocol: Experimental Example 2: Measurement of SHP2 Protein Degradation in MV-4-11 Cells
MV-4-11 cells were treated with the synthesized Example compound, and the amount of SHP2 protein present in the cells was measured using western blotting detection. The protocol of the experiment conducted using MV-4-11 cells was as follows:
[Culture] MV-4-11 cells resuspended in IMDM MEDIUM (Hyclone, SH30228.01) containing 5% FBS (Hyclone, SV30207.02) and 1% Penicillin-streptomycin (Welgene, LS 202-02) were seeded at a density of 1×10^6/mL/well in a 12-well plate in an amount of 1 ml each.
[Compound treatment] The 12-well plate was treated as follows: Cells were treated with compounds at a final concentration of […] made by serial dilution of 10 mM stock with DMSO in 1/100 increments […]. After 24 hours, cells were harvested. For the negative control group, DMSO diluted 1/100 to the media (3 mL DMSO+297 mL media) was added.
[Harvest] Each well was collected in a 1.5 mL microtube by pipetting with a 1 mL pipette and centrifuged (500 g, 5 min, 4° C.). The supernatant was removed. It was washed with PBS, and then centrifuged again (500 g, 5 min, 4° C.). Thereafter, the supernatant was removed to prepare a pellet.
[Cell Lysis and Sample preparation] Lysis buffer was prepared as follows: […] of RIPA buffer (Biosesang, RC2038-050-00)+0.5 mM PMSF (SIGMA, P7626)+1× Protease/Phosphatase Inhibitor (Cell signaling, 5872S) per well was added and placed on ice for 30 minutes (vortexing at 0 and 30 minutes, respectively). After sonication process (10 seconds pulse, 30 seconds rest, 5 cycles, 70% amplification), centrifugation (15000 g, 15 min, 4° C.) was performed, and then only the supernatant was taken and transferred to a microtube. The sample was diluted ¼ with RIPA buffer in a 96-well plate, and mixed with A:B=50:1 of the BCA Protein Assay Kit (iNtRON, 21071). […] each of the mixture was left at 37° C. for 30 minutes, and cooled for 10 minutes. Then, absorbance was measured at 562 nm with the SYNERGY H1 microplate reader from BioTek. After making a sample by quantifying the protein with the measured value, boiling was performed at 70° C. for 10 minutes. At this time, the sample buffer used was a mixture of NuPAGE or Bolt 4× sample buffer (Invitrogen) and each 10× sample reducing agent according to the gel to be used, and RIPA buffer was used for protein dilution.
[Western blotting detection method] The same amount of sample was loaded on NuPAGE or Bolt Bis-tris 4-12% gradient gel and run (200 V, 35 minutes). It was transferred to 0.2 mm NC membrane with Trans-blot Turbo (BIO-RAD) (1.3 A constant, 25 V limit, 15 minutes). Blocking was performed at room temperature for 1 hour with Skim milk or Intercept Blocking Buffer (LI-COR, 927-60001):0.1% TBST=1:1. Anti-SHPTP2 Mouse (1:500 in 2% BSA/0.2% TBST, size: 70 kDa, Santacruz sc-7384) was incubated overnight at 4° C., and Anti-GAPDH Rabbit (1:2,000 in 2% BSA/0.2% TBST, size: 37 kDa, CST #2118) was incubated at room temperature for 1 hour 30 minutes or 3 hours. It was washed 3 times for 5 minutes each with 0.2% TBST washing buffer. Secondary antibody Anti-Rabbit IgG (1:5,000 in 2% BSA/0.2% TBST, CST), IRDye® 680RD Goat anti-Rabbit IgG Secondary Antibody (1:10,000 in 2% BSA/0.2% TBST, LI-COR 926-68071) were added and incubated for 45 minutes on a rocker at room temperature. It was washed 5 times for 5 minutes each with 0.2% TBST washing buffer and detected with LI-COR's Odyssey. At this time, SHPTP2 was detected using SuperSignal West Pico PLUS Chemiluminescent Substrate, and house-keeping genes were also detected.
In the results of Table 4 below, Compounds 1-7, 13-19, and 21-26 are results in KYSE-520 cells, and the others are results in MV-4-11 cells.

Molecules are shown by their SMILES.

With `Cc1ncsc1-c1ccc(CNC(=O)[C@@H]2C[C@@H](O)CN2C(=O)[C@@H](NC(=O)C2(F)CC2)C(C)(C)C)c(OCCN2CCN(C(=O)CC(=O)Nc3cccc(Sc4ncc(N5CCC(C)(CN)CC5)nc4N)c3Cl)CC2)c1` [Example 55, (2S,4R)—N-(2-(2-(4-(3-((3-((3-amino-5-(4-(aminomethyl)-4-methylpiperidin-1-yl)pyrazin-2-yl)thio)-2-chlorophenyl)amino)-3-oxopropanoyl)piperazin-1-yl)ethoxy)-4-(4-methylthiazol-5-yl)benzyl)-1-((S)-2-(1-fluorocyclopropane-1-carboxamido)-3,3-dimethylbutanoyl)-4-hydroxypyrrolidine-2-carboxamide], the “SHP2 degradation (%) 10 nM” value was 85.9% and the “SHP2 degradation (%) 100 nM” value turned out to be 97.8%.

On to `Cc1ncsc1-c1ccc(CNC(=O)[C@@H]2C[C@@H](O)CN2C(=O)[C@@H](NC(=O)C2(F)CC2)C(C)(C)C)c(OCC2CCN(C(=O)CC(=O)Nc3cccc(Sc4ncc(N5CCC(C)(CN)CC5)nc4N)c3Cl)CC2)c1` [Example 32, (2S,4R)—N-(2-((1-(3-((3-((3-amino-5-(4-(aminomethyl)-4-methylpiperidin-1-yl)pyrazin-2-yl)thio)-2-chlorophenyl)amino)-3-oxopropanoyl)piperidin-4-yl)methoxy)-4-(4-methylthiazol-5-yl)benzyl)-1-((S)-2-(1-fluorocyclopropane-1-carboxamido)-3,3-dimethylbutanoyl)-4-hydroxypyrrolidine-2-carboxamide], for which the “SHP2 degradation (%) 10 nM” value stood at 75% and the “SHP2 degradation (%) 100 nM” value is recorded as 95%.

Consider `Cc1ncsc1-c1ccc(CNC(=O)[C@@H]2C[C@@H](O)CN2C(=O)[C@@H](NC(=O)C2(F)CC2)C(C)(C)C)c(OCCN2CC3CCC(C2)N3C(=O)CC(=O)Nc2cccc(Sc3cnc(N4CCC(C)(CN)CC4)cn3)c2Cl)c1` [Example 68, (2S,4R)—N-(2-(2-(8-(3-((3-((5-(4-(aminomethyl)-4-methylpiperidin-1-yl)pyrazin-2-yl)thio)-2-chlorophenyl)amino)-3-oxopropanoyl)-3,8-diazabicyclo[3.2.1]octan-3-yl)ethoxy)-4-(4-methylthiazol-5-yl)benzyl)-1-((S)-2-(1-fluorocyclopropane-1-carboxamido)-3,3-dimethylbutanoyl)-4-hydroxypyrrolidine-2-carboxamide], for which the “SHP2 degradation (%) 10 nM” value is recorded as 83.3% and the “SHP2 degradation (%) 100 nM” value stood at 98.3%.

For `Cc1ncsc1-c1ccc(CNC(=O)[C@@H]2C[C@@H](O)CN2C(=O)[C@@H](NC(=O)C2(F)CC2)C(C)(C)C)c(OCCC2CCN(C(=O)C3(C(=O)Nc4cccc(Sc5cnc(N6CCC(C)(CN)CC6)cn5)c4Cl)CC3)CC2)c1` [Example 47, (2S,4R)—N-(2-(2-(1-(1-((3-((5-(4-(aminomethyl)-4-methylpiperidin-1-yl)pyrazin-2-yl)thio)-2-chlorophenyl)carbamoyl)cyclopropane-1-carbonyl)piperidin-4-yl)ethoxy)-4-(4-methylthiazol-5-yl)benzyl)-1-((S)-2-(1-fluorocyclopropane-1-carboxamido)-3,3-dimethylbutanoyl)-4-hydroxypyrrolidine-2-carboxamide], the “SHP2 degradation (%) 10 nM” value is −2.5% and the “SHP2 degradation (%) 100 nM” value was 21.1%. For the same compound, the “SHP2 protein degradation activity (in words)” value (comment on Table 4) was “somewhat decreased”.

For the compound `Cc1ncsc1-c1ccc(CNC(=O)[C@@H]2C[C@@H](O)CN2C(=O)[C@@H](NC(=O)C2CC2)C(C)(C)C)c(OCCCN2CCN(CC(=O)Nc3cccc(Sc4cnc(N5CCC(C)(CN)CC5)cn4)c3Cl)C(=O)C2)c1` [Example 80, (2S,4R)—N-(2-(3-(4-(2-((3-((5-(4-(aminomethyl)-4-methylpiperidin-1-yl)pyrazin-2-yl)thio)-2-chlorophenyl)amino)-2-oxoethyl)-3-oxopiperazin-1-yl)propoxy)-4-(4-methylthiazol-5-yl)benzyl)-1-((S)-2-(cyclopropanecarboxamido)-3,3-dimethylbutanoyl)-4-hydroxypyrrolidine-2-carboxamide], the “SHP2 degradation (%) 10 nM” value stood at 83.1% and the “SHP2 degradation (%) 100 nM” value was 98.2%.

Take `Cc1ncsc1-c1ccc(CNC(=O)[C@@H]2C[C@@H](O)CN2C(=O)[C@@H](NC(=O)C2(F)CC2)C(C)(C)C)c(OCCCN2CCC(O)(CC(=O)Nc3cccc(Sc4cnc(N5CCC(C)(CN)CC5)cn4)c3Cl)CC2)c1` [Example 20]: the “SHP2 degradation (%) 10 nM” value stood at 54.9% and the “SHP2 degradation (%) 100 nM” value is listed as 99.0%.

Consider `Cc1ncsc1-c1ccc(CNC(=O)[C@@H]2C[C@@H](O)CN2C(=O)[C@@H](NC(=O)C2(F)CC2)C(C)(C)C)c(OCCN2CCN(c3cnc(C(=O)Nc4cccc(Sc5cnc(N6CCC(C)(CN)CC6)cn5)c4Cl)nc3)CC2)c1` [Example 83, N-(3-((5-(4-(aminomethyl)-4-methylpiperidin-1-yl)pyrazin-2-yl)thio)-2-chlorophenyl)-5-(4-(2-(2-(((2S,4R)-1-((S)-2-(1-fluorocyclopropane-1-carboxamido)-3,3-dimethylbutanoyl)-4-hydroxypyrrolidine-2-carboxamido)methyl)-5-(4-methylthiazol-5-yl)phenoxy)ethyl)piperazin-1-yl)pyrimidine-2-carboxamide], for which the “SHP2 degradation (%) 10 nM” value was 79.9% and the “SHP2 degradation (%) 100 nM” value is given as 97.5%.

With `CC(=O)N[C@H](C(=O)N1C[C@H](O)C[C@H]1C(=O)NCc1ccc(-c2scnc2C)cc1OCCCN1CCN(C(=O)CC(=O)Nc2cccc(Sc3cnc(N4CCC(C)(CN)CC4)cn3)c2Cl)CC1)C(C)(C)C` [Example 61, (2S,4R)-1-((S)-2-acetamido-3,3-dimethylbutanoyl)-N-(2-(3-(4-(3-((3-((5-(4-(aminomethyl)-4-methylpiperidin-1-yl)pyrazin-2-yl)thio)-2-chlorophenyl)amino)-3-oxopropanoyl)piperazin-1-yl)propoxy)-4-(4-methylthiazol-5-yl)benzyl)-4-hydroxypyrrolidine-2-carboxamide], the “SHP2 degradation (%) 10 nM” value came to 87.3% and the “SHP2 degradation (%) 100 nM” value was 99.4%.

The values are drawn from patent publication US20250230154A1, “COMPOUND HAVING SHP2 PROTEIN DEGRADING ACTIVITY, AND MEDICAL USES THEREOF” (UBIX THERAPEUTICS, INC., priority 2021, published 2025).
